The values below come from patent US20140038205A1, “METHODS AND COMPOSITIONS RELATING TO COAGULATION ASSAYS” (Precision BioLogic Inc., priority 2011, published 2014).

The target in one assay is T1, PF4 (Homo sapiens, UniProt P02776).
T1 sequence (P02776 32-101): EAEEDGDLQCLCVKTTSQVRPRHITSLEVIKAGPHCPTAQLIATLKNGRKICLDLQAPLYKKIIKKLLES
Conditions: rank: heparin>heparan sulfate>dermatan sulfate>chondroitin-6-sulfate>chondroitin-4-sulfate; cited from earlier work.

The conditions of assay [1]: relative to heparin; cited from earlier work.
The test system of the next assay is non-heparinized plasma. Nature of the assay: aPTT assay of non-heparinized plasma. The class given is biochemical. Conditions: FIG. 2 and FIG. 3. From the text:
(§1) In the aPTT (also referred to as “partial thromboplastin time” or “PTT”) assay, the sample is then mixed with a phospholipid, an activator such as silica, celite, kaolin or ellagic acid, and calcium. The contact activator is used to stimulate production of Factor XIIa. The phospholipids form complexes that activate Factor X and prothrombin. Calcium is used to reverse the anticoagulant effects of the oxalate or citrate. The mixture is then allowed to form a thrombus (clot) and the time to do so is measured. An abnormal or prolonged aPTT time will vary depending on the population and local normal ranges should be known. However, as a general guideline, values over 39 seconds may be considered abnormal and prolonged according to the invention, and such samples may be candidates for further analysis using the methods of the invention.
The PF4-based reagent may be used for the in vitro neutralization of heparin in samples as assessed by the aPTT assay. To ensure an accurate aPTT result the reagent must act specifically to reverse only anticoagulant activity associated with heparin, and otherwise have no effect on the plasma clotting time. […] This phenomenon might be due to PF4-induced stimulation of the thrombin-mediated cleavage of protein C to generate the potent anticoagulant activated protein C (APC). APC acts to inactivate coagulation Factors Va and VIIIa by proteolysis. […]

Assay [2] deals with unfractionated heparin (UFH). The assay is described as follows: aPTT assay, neutralization of heparin in heparinized plasma. In kind it is biochemical. Conditions: plasma containing up to 2 U/mL of UFH; FIG. 1 and FIG. 4.
Source text: PF4 tetramers form a cylindrical structure displaying an equatorial ring of positively charged amino acids around which the polyanionic heparin molecules wrap and bind with exceptionally high affinity. The formation of a PF4-heparin complex strongly impairs the capacity of heparin to bind AT and stimulate its anticoagulant activity.
as §1
The PF4-based reagent may be used for the in vitro neutralization of heparin in samples as assessed by the aPTT assay. […]

Turning to chondroitin-4-sulfate, the “relative binding affinity for PF4” value at PF4 was “low relative affinity for PF4”. Moreover, the anti-coagulant potency entry in assay [1] was “much lower than that of heparin”.

As to platelet factor 4 [PF4], in the assay with non-heparinized plasma, the “effect on the aPTT of non-heparinized plasma” value is reported as “gradual prolongation of the aPTT”. The “neutralization of heparin anticoagulant activity (aPTT)” value in assay [2] is “fully corrected to baseline”.
